Results on 21 compounds are retold here after patent US20250163022A1, “PARP1 INHIBITORS” (Synnovation Therapeutics, Inc., priority 2021, published 2025).

Structures are written as SMILES.

The target in the assay is T1, PARP1 (Homo sapiens, UniProt P09874).
T1 construct: HeLa cells (wide-type with PARP1 gene) were purchased from ATCC; host or cells: HeLa (wild type)
The assay can be described thus: In-Cell Western measurement of PARylation in PARP1 WT and knockout cells. Type of assay: cell-based. As to conditions: HeLa cells (wide-type with PARP1 gene); hydrogen peroxide-induced PARylation; compounds 30 min, then 10 mM hydrogen peroxide 15 min; read-out: HeLa_WT_IC50. The procedure, abridged:
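Wild-type and PARP1-knockout HEK-293T and HAP1 cells, plus HeLa, pretreated with compound 30 min, then stimulated with 10 mM hydrogen peroxide for 15 min. Methanol-fixed cells immunostained for PARylation and imaged by In-Cell Western with infrared secondary antibody; IC50 fitted from signal.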

T1 sequence (P09874 whole entry): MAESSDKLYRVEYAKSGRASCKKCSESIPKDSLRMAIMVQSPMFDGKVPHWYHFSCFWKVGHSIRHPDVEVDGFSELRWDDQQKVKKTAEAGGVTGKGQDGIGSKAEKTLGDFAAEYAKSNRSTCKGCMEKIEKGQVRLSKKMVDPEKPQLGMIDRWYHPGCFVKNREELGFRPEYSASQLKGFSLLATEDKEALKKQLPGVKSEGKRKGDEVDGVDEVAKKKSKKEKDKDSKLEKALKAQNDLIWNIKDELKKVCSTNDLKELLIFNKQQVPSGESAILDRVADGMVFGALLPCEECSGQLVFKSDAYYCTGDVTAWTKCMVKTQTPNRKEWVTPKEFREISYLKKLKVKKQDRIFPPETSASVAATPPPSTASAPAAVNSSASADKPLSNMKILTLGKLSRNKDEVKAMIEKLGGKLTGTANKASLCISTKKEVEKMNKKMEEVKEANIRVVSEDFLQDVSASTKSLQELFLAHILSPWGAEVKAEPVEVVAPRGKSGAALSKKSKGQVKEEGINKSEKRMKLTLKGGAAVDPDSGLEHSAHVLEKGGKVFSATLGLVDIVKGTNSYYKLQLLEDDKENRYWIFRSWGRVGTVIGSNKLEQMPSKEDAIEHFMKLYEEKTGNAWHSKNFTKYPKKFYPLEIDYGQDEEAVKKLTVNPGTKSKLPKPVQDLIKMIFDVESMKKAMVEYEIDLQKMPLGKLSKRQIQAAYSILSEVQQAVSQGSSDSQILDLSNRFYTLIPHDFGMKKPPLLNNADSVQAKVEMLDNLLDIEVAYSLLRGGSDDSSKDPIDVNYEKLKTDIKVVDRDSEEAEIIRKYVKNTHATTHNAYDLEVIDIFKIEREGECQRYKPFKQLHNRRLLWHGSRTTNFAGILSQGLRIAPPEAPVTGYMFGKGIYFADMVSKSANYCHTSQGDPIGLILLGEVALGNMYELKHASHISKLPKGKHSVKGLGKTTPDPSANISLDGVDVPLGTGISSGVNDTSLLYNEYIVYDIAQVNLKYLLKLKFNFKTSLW

In the case of `CCn1c(=O)[nH]c2c(F)c(CN3CCN(c4ccc(C(=O)NC)nc4C)CC3)cc(CO)c2c1=O` [Compound I-41, 5-(4-((3-Ethyl-8-fluoro-5-(hydroxymethyl)-2,4-dioxo-1,2,3,4-tetrahydroquinazolin-7-yl)methyl)piperazin-1-yl)-N,6-dimethylpicolinamide], the IC50 is at most 0.01 µM.
Then `CCN1C(=O)Nc2c(F)c(CN3CCN(c4ccc(C(=O)N[C@H]5CCOC5)nc4C)CC3)cc3ncnc1c23` [Compound I-73, (S)-5-(4-((3-ethyl-9-fluoro-2-oxo-2,3-dihydro-1H-pyrimido[4,5,6-de]quinazolin-8-yl)methyl)piperazin-1-yl)-6-methyl-N-(tetrahydrofuran-3-yl)picolinamide], with at most 0.01 µM; and `CCn1c(=O)[nH]c2c(F)c(CN3CCN(c4ccc(C(=O)NC)nc4C)CC3)cc(COC)c2c1=O` [Compound I-46, 5-(4-((3-Ethyl-8-fluoro-5-(methoxymethyl)-2,4-dioxo-1,2,3,4-tetrahydroquinazolin-7-yl)methyl)piperazin-1-yl)-N,6-dimethylpicolinamide], with at most 0.01 µM; and `CCN1C(=O)Nc2c(F)c(CN3CCN(c4ccc(C(=O)N[C@@H]5CCOC5)nc4C)CC3)cc3ncnc1c23` [Compound I-67, (R)-5-(4-((3-ethyl-9-fluoro-2-oxo-2,3-dihydro-1H-pyrimido[4,5,6-de]quinazolin-8-yl)methyl)piperazin-1-yl)-6-methyl-N-(tetrahydrofuran-3-yl)picolinamide], with at most 0.01 µM.
Regarding `CNC(=O)c1ccc(N2CCN(Cc3ncc4c5c(c(=O)[nH]c4c3F)CCC5)CC2)cn1` [Compound I-26, 5-(4-((4-Fluoro-6-oxo-6,7,8,9-tetrahydro-5H-cyclopenta[c][1,6]naphthyridin-3-yl)methyl)piperazin-1-yl)-N-methylpicolinamide], the IC50 was at most 0.01 µM.
For the compound `CCn1c(=O)[nH]c2c(F)c(CN3CCN(c4ccc(C(=O)NC)nc4C)CC3)cc(C3CC3)c2c1=O` [Compound I-40, 5-(4-((5-Cyclopropyl-3-ethyl-8-fluoro-2,4-dioxo-1,2,3,4-tetrahydroquinazolin-7-yl)methyl)piperazin-1-yl)-N,6-dimethylpicolinamide], the IC50 was at most 0.01 µM.
As to `CCN1C(=O)Nc2c(F)c(CN3CCN(c4ccc(C(=O)NC)nc4C)CC3)cc3c2c1nc(=O)n3C` [Compound I-51, 5-(4-((3-Ethyl-9-fluoro-6-methyl-2,5-dioxo-2,3,5,6-tetrahydro-1H-pyrimido[4,5,6-de]quinazolin-8-yl)methyl)piperazin-1-yl)-N,6-dimethylpicolinamide], the IC50 lay in the range of 0.01 to 0.1 µM.
Turning to `CCn1c(=O)[nH]c2c(F)c(CN3CCN(c4ccc(C(=O)NC)nc4C)CC3)cc(CC#N)c2c1=O` [Compound I-42, 5-(4-((5-(Cyanomethyl)-3-ethyl-8-fluoro-2,4-dioxo-1,2,3,4-tetrahydroquinazolin-7-yl)methyl)piperazin-1-yl)-N,6-dimethylpicolinamide], the IC50 is at most 0.01 µM.
Then `CCN1C(=O)Nc2cc(CN3CCN(c4ccc(C(=O)NC)nc4)CC3)cc3ncnc1c23` [Compound I-15, 5-(4-((3-Ethyl-2-oxo-2,3-dihydro-1H-pyrimido[4,5,6-de]quinazolin-8-yl)methyl)piperazin-1-yl)-N-methylpicolinamide], with at most 0.01 µM; and `CCN1C(=O)Nc2c(F)c(CN3CCN(c4ccc(C(=O)NOC)nc4C)CC3)cc3ncnc1c23` [Compound I-57, 5-(4-((3-Ethyl-9-fluoro-2-oxo-2,3-dihydro-1H-pyrimido[4,5,6-de]quinazolin-8-yl)methyl)piperazin-1-yl)-N-methoxy-6-methylpicolinamide], with at most 0.01 µM.
As for `CCn1c(=O)[nH]c2cc(CN3CCN(c4ccc(C(=O)NC)nc4)CC3)cnc2c1=O` [Compound I-9, 5-(4-((3-Ethyl-2,4-dioxo-1,2,3,4-tetrahydropyrido[3,2-d]pyrimidin-7-yl)methyl)piperazin-1-yl)-N-methylpicolinamide], the IC50 lay within 0.1 to 0.5 µM.
For the compound `CNC(=O)c1ccc(N2CCN(Cc3ccc4c(c3)[nH]c(=O)c3c4cnn3C)CC2)cn1` [Compound I-10, N-methyl-5-(4-((3-methyl-4-oxo-4,5-dihydro-3H-pyrazolo[3,4-c]quinolin-7-yl)methyl)piperazin-1-yl)picolinamide], the IC50 fell in the range of 0.01 to 0.1 µM.
Then `CCn1c(=O)[nH]c2cc(CN3CCN(c4ccc(C(=O)NC)nc4C(F)(F)F)CC3)ccc2c1=O` [Compound I-31, 5-(4-((3-Ethyl-2,4-dioxo-1,2,3,4-tetrahydroquinazolin-7-yl)methyl)piperazin-1-yl)-N-methyl-6-(trifluoromethyl)picolinamide], with at most 0.01 µM; and `CCN1C(=O)Nc2c(F)c(CN3CCN(c4ccc(C(=O)NC5(C#N)CC5)nc4C)CC3)cc3ncnc1c23` [Compound I-62, N-(1-cyanocyclopropyl)-5-(4-((3-ethyl-9-fluoro-2-oxo-2,3-dihydro-1H-pyrimido[4,5,6-de]quinazolin-8-yl)methyl)piperazin-1-yl)-6-methylpicolinamide], with at most 0.01 µM; and `CCN1C(=O)Nc2c(F)c(CN3CCN(c4ccc(C(=O)NC5CC5)c(F)c4F)CC3)cc3ncnc1c23` [Compound I-90, N-cyclopropyl-4-(4-((3-ethyl-9-fluoro-2-oxo-2,3-dihydro-1H-pyrimido[4,5,6-de]quinazolin-8-yl)methyl)piperazin-1-yl)-2,3-difluorobenzamide], with at most 0.01 µM.
Regarding `CCN1C(=O)Nc2c(F)c(CN3CCN(c4ccc(C(=O)NC)nc4C)CC3)cc3c2c1nn3C` [Compound I-34, 5-(4-((3-Ethyl-6-fluoro-1-methyl-4-oxo-1,3,4,5-tetrahydropyrazolo[3,4,5-de]quinazolin-7-yl)methyl)piperazin-1-yl)-N,6-dimethylpicolinamide], the IC50 is at most 0.01 µM.
Then `CCN1C(=O)Nc2c(F)c(CN3CCN(c4ccc(C(=O)N[C@H]5CC[C@@H](C#N)CC5)nc4C)CC3)cc3ncnc1c23` [Compound I-74, N-((1s,4s)-4-cyanocyclohexyl)-5-(4-((3-ethyl-9-fluoro-2-oxo-2,3-dihydro-1H-pyrimido[4,5,6-de]quinazolin-8-yl)methyl)piperazin-1-yl)-6-methylpicolinamide], with 0.01 to 0.1 µM.
Then `CCN1C(=O)Nc2cc(CN3CCN(c4ccc(C(=O)NC)nc4F)CC3)cc3ncnc1c23` [Compound I-19, 5-(4-((3-ethyl-2-oxo-2,3-dihydro-1H-pyrimido[4,5,6-de]quinazolin-8-yl)methyl)piperazin-1-yl)-6-fluoro-N-methylpicolinamide], with at most 0.01 µM; and `[2H]C([2H])([2H])NC(=O)c1ccc(N2CCN(Cc3ccc4c(=O)n(CC)c(=O)[nH]c4c3)CC2)c(C([2H])([2H])[2H])n1` [Compound I-44, 5-(4-((3-ethyl-2,4-dioxo-1,2,3,4-tetrahydroquinazolin-7-yl)methyl)piperazin-1-yl)-N,6-bis(methyl-d3)picolinamide], with at most 0.01 µM.
Regarding `CCN1C(=O)Nc2c(F)c(CN3CCN(c4ccc(C(=O)NC5CC5)nc4C)CC3)cc3c(=O)n(C)nc1c23` [Compound I-80, N-cyclopropyl-5-(4-((9-ethyl-6-fluoro-2-methyl-3,8-dioxo-2,7,8,9-tetrahydro-3H-pyridazino[3,4,5-de]quinazolin-5-yl)methyl)piperazin-1-yl)-6-methylpicolinamide], the IC50 was 0.01 to 0.1 µM.
Then `CNC(=O)c1ccc(N2CCN(Cc3ccc4c5c(c(=O)[nH]c4c3)CCC5)CC2)cn1` [Compound I-4, N-methyl-5-(4-((4-oxo-2,3,4,5-tetrahydro-1H-cyclopenta[c]quinolin-7-yl)methyl)piperazin-1-yl)picolinamide], with at most 0.01 µM.
